# Source: patent publication US6518300B2, “Treatment of lipid metabolic disorders using 5-(1,2-dithiolan-3-yl) valeric acid (α-lipoic acid) or its physiologically compatible salts” (BiRD Berolina innovative Research and Development GmbH, priority 1998, dated 2003)
# Assays:
# [1] = doses of approximately 600 mg/day; treatment of polyneuropathy; cited from earlier work
# [2] = same observational study; patients assigned to three groups by disease pattern (DGFF guidelines); format: in vivo
# Method: A somewhat smaller group was treated with α-lipoic acid, but not with captopril (n=280). The treatment time extended over approximately 3 months. α-Lipoic acid was predominantly administered orally or parenterally in a dose of 600 mg per day. Captopril was ingested orally in daily doses of 12.5 to 50 mg.
# In another consideration, the patients were assigned to three groups on the basis of their disease pattern, independent of the form of therapy, according to the “Guidelines of the German Association for Combatting Disorders of Lipid Metabolism and Their Sequelae DGFF (Lipid-Liga) e.V.” (Supplement to the German Ärzteblatte 1996; 4, 1-8):
# 1) isolated LDL-hypercholesterolemia (LDL>4.14, triglycerides≦2.2 mmoles/l);
# 2) combined LDL-hypercholesterolemia (LDL>4.14, triglycerides>2.2 mmoles/l);
# 3) isolated hypertriglyceridemia (LDL≦4.14, triglycerides>2.2 mmoles/l).
# Standard values from the literature were set as limiting values (Wilson et al., Harrison's Principles of Internal Medicine, 12Edition, McGraw-Hill, 1991).
# Sixty-two patients were placed in the first group, 112 patients in the second group, and 83 patients in the third group.
# [3] = open observational study of blood lipid values under α-lipoic acid therapy; total population and individual-parameter analysis; format: in vivo, patients
# Method: A somewhat smaller group was treated with α-lipoic acid, but not with captopril (n=280). The treatment time extended over approximately 3 months. α-Lipoic acid was predominantly administered orally or parenterally in a dose of 600 mg per day. Captopril was ingested orally in daily doses of 12.5 to 50 mg. At the beginning of therapy and at the end of observation after three months, the blood lipid values were optionally recorded. […] Because of the different basic treatment, the patients with combined therapy of α-lipoic acid and captopril and those with a single therapy with α-lipoic acid were placed in subgroups for this purpose: the 160 remaining patients (those with single therapy with captopril, n=154; those without treatment data n=6) were not included in the further analysis, since in this remaining group, only a small, incomparable number of patients had initial values corresponding to the range named under point 2 (triglycerides n=0, total cholesterol n=63, HDL cholesterol n=0, LDL cholesterol n=32). In a first analysis, the parameters were represented independently of one another, i.e., all patients, who had the initial values given below for the parameter, were included for each parameter: triglycerides >6 mmoles/l; total cholesterol >6 mmoles/l HDL cholesterol 0.7-0.8 mmole/l; LDL cholesterol >2.5 mmoles/l. The limits of the range were selected based on the studies reported in the literature (H. Thuro, Effective decrease in cholesterol and triglycerides with atorvastatin, Supplement in Der Internist 1996; 37 (8), 1-8).
# [4] = group 2 combined LDL-hypercholesterolemia
# [5] = group 2 combined LDL-hypercholesterolemia, 91 paired values, p<0.0001
# [6] = total population, start vs end of observation after three months, predominantly 600 mg per day
compound,measurement,setting,value
"O=C(O)CCCCC1CCSS1 (stereo not drawn) [α-lipoic acid, 5-(1,2-dithiolan-3-yl) valeric acid]",compatibility of oral and parenteral therapy,[1],very good
same,"HDL cholesterol, percent increase","[2]; group 1, 34 paired values, not significant",approximately 10%
same,"total cholesterol, percent decrease",[2]; group 1 isolated LDL-hypercholesterolemia,8%
same,"total cholesterol, end value","[2]; group 1 isolated LDL-hypercholesterolemia, initial 7.01 (n=62), end n=40",6.49 mmol/L
same,"LDL cholesterol, mean percent decrease","[2]; group 1 isolated LDL-hypercholesterolemia, p<0.0001",16%
same,"HDL cholesterol, end value","[2]; group 1 isolated LDL-hypercholesterolemia, prior 1.29 (n=61), end n=34",1.34 mmol/L
same,"triglycerides, average end value","[2]; group 1 isolated LDL-hypercholesterolemia, prior 1.69, n=38, increase not significant",1.70 mmol/L
same,"LDL cholesterol, end value","[2]; group 1 isolated LDL-hypercholesterolemia, prior 5.02, n=33",4.33 mmol/L
same,"HDL cholesterol, percent increase",[2]; [4],4.5%
same,"total cholesterol, percent decrease",[2]; [4],~10%
same,"triglycerides, absolute difference (decrease)",[2]; [5],0.83 mmol/L
same,"triglycerides, percent decrease",[2]; [5],20%
same,"LDL cholesterol, mean percent decrease","[2]; group 2 combined LDL-hypercholesterolemia, p<0.0001",14%
same,"HDL cholesterol, end value","[2]; group 2 combined LDL-hypercholesterolemia, prior 1.15 (n=108), end n=77",1.15 mmol/L
same,"LDL cholesterol, end value","[2]; group 2 combined LDL-hypercholesterolemia, prior 5.42, n=74",4.75 mmol/L
same,"total cholesterol, end value","[2]; group 2 combined LDL-hypercholesterolemia, prior 7.71 (n=112), end n=94",6.86 mmol/L
same,"triglycerides, end value","[2]; group 2 combined LDL-hypercholesterolemia, prior value 3.75, 91 paired values",2.74 mmol/L
same,"HDL cholesterol, percent increase","[2]; group 3, 59 paired values, p<0.01",approximately 15%
same,"total cholesterol, percent decrease",[2]; group 3 isolated hypertriglyceridemia,about 5%
same,"LDL cholesterol, end value","[2]; group 3 isolated hypertriglyceridemia, initial 3.29, n=59, change not significant",3.23 mmol/L
same,"total cholesterol, end value","[2]; group 3 isolated hypertriglyceridemia, initial 6.31 (n=83), end n=67",5.88 mmol/L
same,"triglycerides, percent reduction","[2]; group 3 isolated hypertriglyceridemia, n=67, p<0.0001",about 16%
same,"HDL cholesterol, end value","[2]; group 3 isolated hypertriglyceridemia, prior 1.19 (n=83), end n=59",1.31 mmol/L
same,"triglycerides, end value","[2]; group 3 isolated hypertriglyceridemia, prior 3.33 (n=83), n=67, p<0.0001",2.69 mmol/L
same,decrease in ratio of LDL to HDL cholesterol,[2]; isolated LDL hypercholesterolemia (group 1),16.97%
same,"ratio of LDL to HDL cholesterol, end value","[2]; isolated LDL hypercholesterolemia (group 1), prior value 3.89",3.23
same,decrease in ratio of LDL to HDL cholesterol,[2]; mixed hyperlipidemia (group 2),12.31%
same,"ratio of LDL to HDL cholesterol, end value","[2]; mixed hyperlipidemia (group 2), prior value 4.71",4.13
same,improvement in ratio of LDL to HDL cholesterol,"[2]; patients without LDL cholesterinolemia (group 3), initial value in normal range",10.51%
same,"HDL cholesterol, mean end value","[3]; patients with initial HDL 0.7-0.8 mmole/l, all patients, prior mean 0.76 (n=33), end n=13, increase not significant",0.97 mmol/L
same,"percent increase of HDL cholesterol, on average","[3]; patients with initial HDL 0.7-0.8 mmole/l, not significant",over 20%
same,"LDL cholesterol, mean end value","[3]; patients with initial LDL >2.5 mmoles/l, all patients, prior mean 4.41 (n=336), end n=208, p<0.001",4.03 mmol/L
same,"percent decrease of LDL cholesterol, on average","[3]; patients with initial LDL >2.5 mmoles/l, in all groups",approximately 10%
same,mean percent decrease of total cholesterol,"[3]; patients with initial total cholesterol >6 mmoles/l, in all groups",approximately 10%
same,"total cholesterol, mean end value","[3]; patients with initial total cholesterol >6 mmoles/l, prior mean 7.32 (n=853), 570 paired values, p<0.0001",6.57 mmol/L
same,"triglycerides, mean end value","[3]; patients with initial triglycerides >6 mmoles/l, all patients, prior mean 8.96 (n=33), end n=26, p<0.05, approx. 3 months",7.16 mmol/L
same,mean percentual decrease of triglycerides,"[3]; patients with initial triglycerides >6 mmoles/l, in all groups (total, combined with captopril, single therapy)",greater than 20%
same,"observed changes of all lipid parameters, single therapy compared with combined therapy with captopril",[3]; single therapy of α-lipoic acid vs combined therapy with captopril,more strongly pronounced
same,change of HDL cholesterol,[3]; [6],slight increase
same,change of LDL cholesterol,[3]; [6],statistically striking decrease
same,change of total cholesterol,[3]; [6],statistically striking decrease
same,change of triglycerides,"[3]; total population, start vs end of observation after three months, predominantly 600 mg per day oral or parenteral",statistically striking decrease
